Reference: patent publication US20090318342A1, “Compounds” (IMPERIAL INNOVATIONS LIMITED, priority 2005, published 2009)

Tests used:
[1] = test system: porcine articular cartilage; test: IL-1α-stimulated porcine articular cartilage degradation, GAG release (DMMB); format: cell-based; conditions: IL-1α 10 ng/ml, 3 days
Protocol: FIG. 7. Inhibition of IL-1a stimulated porcine articular cartilage degradation by N-terminal mutants of N-TIMP-3. Porcine articular cartilage pieces were cultured for three days. Cartilage was stimulated with IL-1α (10 ng/ml) with TIMPs at the concentrations indicated. Glycosaminoglycan (GAG) release in the media was measured by dimethyl methylene blue (DMMB).
Porcine articular cartilage from the metacarpophalangeal joints of 3-9 month old pigs is dissected into small shavings approximately 3 mm long and 2-3 mm wide. After dissection, the cartilage is allowed to rest for 24 h at 37° C. under 5% CO2 in DMEM containing penicillin-streptomycin, amphotericin B, and 5% fetal calf serum. The medium is then replaced with fresh media and the cartilage is rested for a further 24-48 h. […]
GAG released into the conditioned media is measured in duplicate using a modification of the dimethylmethylene blue (DMMB) assay as described in Farndale et al.. […] The % of total GAG released into the medium is calculated as follows: % of total GAG released=(total GAG in the medium)/(total GAG in the medium+total GAG remaining in the cartilage).
Porcine articular cartilage pieces were cultured for 3 days. […] Glycosaminoglycan (GAG) release in the media was measured by dimethyl methylene blue (DMMB).

[2] = target: soluble form of TACE (TACE R651) (Homo sapiens, UniProt P78536); test: Enzyme inhibition kinetic study, TACE; format: biochemical; conditions: 0.5 nM TACE, pH 9.0, 1 mM NaCl; for Inhibition of TACE activity (in words): FIG. 2B
Protocol: FIG. 2. Inhibition of MMP and TACE by N-TIMP-3 and its mutants. A. Inhibition of MMP-14(CD) by wild-type and mutated N-TIMP-3. Open circles, wild-type N-TIMP-3; closed circles, T2G; and open squares, -1A. B. Comparison of the inhibition of TACE by wild-type N-TIMP-3, N-TIMP-1 and TAPI-2. The inhibitors were incubated with 0.5 nM TACE for 3 hr at room temperature, and the residual enzyme activity was measured with 10 μM Substrate III (R&D Systems). […] Open circles, N-TIMP-3; closed circles, TAPI-2; and open squares, N-TIMP-1. C. Inhibition of TACE (0.5 nM) by wild-type and mutated N-TIMP-3. Open circles, wild-type inhibitor; closed circles, T2G; and open squares, -1A.
Enzyme inhibition kinetic studies—Inhibition kinetic studies for MMPs and TACE were carried out as described previously (19, 27) with modifications. Purified N-TIMP-3 and mutants were dialyzed against 20 mM Tris-HCl (pH 7.0), 50 mM NaCl containing 20% glycerol, centrifuged at 14,000 rpm for 10 min to remove any precipitate, and protein concentration was re-measured before conducting inhibition assays. Since NaCl inhibits the activity of the TACE ectodomain in vitro (28), we adjusted the final concentration of NaCl to 1 mM in all assays with TACE. Equal volumes (10% of total assay volume) of diluted solutions of N-TIMP-3 and mutants were added to TACE assays, resulting in a final pH of 8.8.
where v is the experimentally determined reaction velocity, v0 is the uninhibited activity, E is enzyme concentration, I is inhibitor concentration, K is the apparent inhibition constant (Ki^(app)) and h is the Hill coefficient.
The inhibitory activities of the mutants were also compared with that of wild-type N-TIMP-3 against a soluble form of TACE in which the transmembrane and C-terminal cytoplasmic domains are deleted (TACE R651; (28)). […] The inhibition curve of TACE by wild-type N-TIMP-3 is sigmoid, in striking contrast with the inhibition by TAPI-2 and with the inhibition of MMPs by N-TIMP-3 and N-TIMP-1 (FIGS. 2A, 2B; (31)). Sigmoid inhibition curves were also obtained for TACE with the T2G and -1A mutants of N-TIMP-3 (FIG. 2C).

[3] = test system: THP-1 cells; test: Inhibition of TNF-α shedding from THP-1 cells (ELISA); format: cell-based, human; conditions: 100 ng/ml PMA, 6 h, 50 to 500 nM
Protocol: FIG. 3. Effects of mutations in N-TIMP-3 on inhibition of cellular shedding of TNF-α. THP-1 cells (2.5×10^6/ml) growing in serum-free RPMI-1640 medium were stimulated with 100 ng/ml PMA for 20 min before adding various concentrations of N-TIMP-3 (wild-type and mutants). Cells were allowed to grow for another 6 hr and conditioned media were collected for the ELISA assays.
Inhibition of TNF-α shedding from THP-1 cells—All TIMP solutions were dialyzed against 20 mM Tris-HCl (pH 7.0), 150 mM NaCl and 20% glycerol before use. Human monocyte THP-1 cells cultured in RPMI-1640 medium supplemented with 5% fetal calf serum were harvested, extensively washed and reseeded into serum-free medium at 2.5×10^6 cells/ml. […] The amount of soluble TNF-α released into the medium was measured using sandwich enzyme-linked immunosorbent assay, as described by Engelberts et al. (30) with modifications. The released TNF-α was absorbed to microtiter plates coated with mouse monoclonal anti-human TNF-α antibody BD551220 (1:200 dilution), and the bound TNF-α was detected using biotinylated mouse monoclonal anti-human TNF-α: antibody BD554511 (1:500 dilution) and streptavidin conjugated with horse radish peroxidase, and 3,3′,5,5′-tetramethylbenzidine as peroxidase substrate (KPL, Guildford, UK). The plates were read at 450 nm with an ELX808 plate reader (BIO-TEK Instruments Inc). […]

[4] = test system: bovine nasal cartilage explants; test: IL-1α-stimulated bovine nasal cartilage explants, GAG release; format: cell-based; conditions: 3 days
Protocol: (§1) GAG released into the conditioned media is measured in duplicate using a modification of the dimethylmethylene blue (DMMB) assay as described in Farndale et al.. Shark chondroitin sulfate (0-2.62 μg) is used as standard. The % of total GAG released into the medium is calculated as follows: % of total GAG released=(total GAG in the medium)/(total GAG in the medium+total GAG remaining in the cartilage).
Bovine nasal cartilage explants were stimulated with IL-1α in the presence or absence of N-TIMP-1, TIMP-2, or N-TIMP-3 for 3 days.

[5] = test system: porcine articular cartilage; test: Retinoic acid-stimulated porcine articular cartilage, GAG release; format: cell-based
Protocol: Porcine articular cartilage from the metacarpophalangeal joints of 3-9 month old pigs is dissected into small shavings approximately 3 mm long and 2-3 mm wide. After dissection, the cartilage is allowed to rest for 24 h at 37° C. under 5% CO2 in DMEM containing penicillin-streptomycin, amphotericin B, and 5% fetal calf serum. The medium is then replaced with fresh media and the cartilage is rested for a further 24-48 h. Each cartilage piece is then placed in one well of a round bottom 96-well plate with 200 μl of serum-free DMEM with or without 10-100 ng/ml IL-1α or 1 μM retinoic acid and various concentrations of each TIMP-3 mutant. After 3 days, all of the conditioned media are harvested and stored at −20° C. until use.
as §1

[6] = test system: aggrecanase activity in IL-1α- and retinoic acid-stimulated cartilage; test: Aggrecanase-generated aggrecan fragments in cartilage conditioned media, Western analysis; format: cell-based; conditions: 1 μM
Text: Aggrecan fragments released into the conditioned medium are deglycosylated by digestion with chondroitinase ABC and keratanase and the samples are subjected to SDS/PAGE and Western blotting analysis as described by Little et al.. The primary antibodies used to detect aggrecanase-generated and MMP-generated aggrecan fragments are BC-3 and BC-14, respectively. Antigen-antibody complexes are detected by anti-mouse AP-linked donkey antibody and the AP substrate.
Conditioned media from the above experiments were analyzed by monoclonal antibodies that recognize either the aggrecanase-generated aggrecan neoepitope ARGSV or the MMP-generated aggrecan neoepitope FFGVG. In concordance with GAG release, there was an increase in the amount of aggrecanase-generated aggrecan fragments released upon treatment with either stimulus, but no MMP-generated fragments were detected.

soluble form of TACE (TACE R651), sequence (P78536 215-651): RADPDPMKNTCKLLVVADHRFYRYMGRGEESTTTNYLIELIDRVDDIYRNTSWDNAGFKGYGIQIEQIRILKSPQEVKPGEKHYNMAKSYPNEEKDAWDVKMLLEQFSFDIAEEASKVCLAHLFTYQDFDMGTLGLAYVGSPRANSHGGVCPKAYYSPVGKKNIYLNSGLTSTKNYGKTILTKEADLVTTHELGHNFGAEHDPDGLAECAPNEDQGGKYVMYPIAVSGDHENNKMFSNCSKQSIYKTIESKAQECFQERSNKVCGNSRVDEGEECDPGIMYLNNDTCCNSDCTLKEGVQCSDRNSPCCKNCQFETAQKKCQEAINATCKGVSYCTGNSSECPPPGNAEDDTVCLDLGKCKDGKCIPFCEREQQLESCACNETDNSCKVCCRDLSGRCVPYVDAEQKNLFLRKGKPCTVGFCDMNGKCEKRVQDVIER

Compound | Inhibition of IL-1α stimulated cartilage degradation (GAG release) [1] | Inhibition of TACE activity (in words) [2] | h (Hill coefficient) for TACE inhibition ([2]; Table II, fit with equation 3) | Ki ([2]; Table II, fit with equation 3, read-out: Ki(app) TACE) | Inhibition of PMA-stimulated release of TNF-α [3] | Inhibition of IL-1α-stimulated GAG release [4] | Inhibition of retinoic acid-stimulated GAG release [5] | Release of aggrecanase-generated aggrecan fragments [6]
TIMP-1: tissue inhibitor of metalloproteinases-1 [reference compound] | did not | – | – | – | – | – | – | –
CC(C)CC(CC(=O)NO)C(=O)NC(C(=O)NC(C)C(=O)NCCN)C(C)(C)C (stereo not drawn) [TAPI-2, HONHCOCH2CH(CH2CH(CH3)2)—CO-t-Butyl-Gly-Ala-NHCH2CH2NH2, reference compound] | – | effectively inhibited | 1 | 4.28 ± 0.001 nM | – | – | – | –
N-TIMP-1: N-terminal inhibitory domain of TIMP-1, expressed in E. coli and folded in vitro [reference compound] | – | minimal inhibitory activity | – | – | no effect | not effective even at the concentration of 1 μM | did not inhibit | not effective
